Test results as given in ChEMBL document CHEMBL1201862, “PubChem BioAssay data set” (2004).
Active and inactive are the calls of the source.

What was measured:
[1] = molecular target: T1, Long-chain-fatty-acid--AMP ligase FadD28 (Mycobacterium tuberculosis, UniProt P9WQ59); test: Fluorescence polarization aasay to screen for inhibitors that compete for the binding of FadD28 to a bisubstrate Measured in Biochemical System Using Plate Reader - 2147-01_Inhibitor_Dose_CherryPick_Activity.; assay type: functional, Mycobacterium tuberculosis H37Rv
T1 sequence (P9WQ59 whole entry): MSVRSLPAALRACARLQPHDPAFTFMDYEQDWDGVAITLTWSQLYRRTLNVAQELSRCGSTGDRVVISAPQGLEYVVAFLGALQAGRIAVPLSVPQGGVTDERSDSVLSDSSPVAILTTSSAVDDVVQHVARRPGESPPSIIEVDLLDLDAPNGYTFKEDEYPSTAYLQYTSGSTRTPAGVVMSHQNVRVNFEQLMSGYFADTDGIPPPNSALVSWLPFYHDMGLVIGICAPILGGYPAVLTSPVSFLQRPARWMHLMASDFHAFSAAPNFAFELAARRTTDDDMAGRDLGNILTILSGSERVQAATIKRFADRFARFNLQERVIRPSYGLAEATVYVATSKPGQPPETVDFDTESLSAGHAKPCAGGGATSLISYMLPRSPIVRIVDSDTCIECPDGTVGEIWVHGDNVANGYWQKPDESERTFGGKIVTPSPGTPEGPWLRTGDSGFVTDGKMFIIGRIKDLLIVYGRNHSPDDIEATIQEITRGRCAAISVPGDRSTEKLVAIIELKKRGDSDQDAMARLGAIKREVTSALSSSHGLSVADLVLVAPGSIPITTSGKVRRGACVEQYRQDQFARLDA

cells [2] = assay type: functional, cell-based
[3] = molecular target: Nuclear receptor subfamily 0 group B member 1 (Homo sapiens, UniProt P51843); assay type: functional, cell-based;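 further: HEK293T cells transfected with SF-1 and DAX-1 plus StAR promoter luciferase reporter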
Protein Wnt-3a = Protein Wnt-3a (Mus musculus, UniProt P27467); test: SAR analysis of small molecule antagonists of Gli-SUFU in a Wnt3a luminescent reporter assay.; assay type: functional
HEK293 = test: HEK293T cell cytotoxicity, dose response, cytotoxicity control, ATP luminescence, cherry-pick samples (AID 687005); assay type: functional, cell-based; settings: Homo sapiens;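 further: cells exposed to compound for 48 hours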
[4] = HEK293 Cytotoxicity Assay Measured in Cell-Based System Using Plate Reader - 7071-01_Inhibitor_Dose_CherryPick_Activity_Set2.; assay type: functional
cells [5] = assay type: functional, cell-based; remark: listed apart in the source
[6] = molecular target: T2, Trace amine-associated receptor 1 (Homo sapiens, UniProt Q96RJ0); test: Fluorescence-based cell-based high throughput dose response assay to identify agonists of the human trace amine associated receptor 1 (TAAR1).; assay type: functional
[7] = molecular target: T2, Trace amine-associated receptor 1; test: Counterscreen for agonists of the human trace amine associated receptor 1 (hTAAR1): Fluorescence-based cell-based high throughput dose response assay to identify hTAAR1 agonist that also desensitize TAAR1 receptor response.; assay type: functional
cells [8] = assay type: functional, cell-based; remark: listed apart in the source
[9] = A Cell-Based Confirmatory Screen for Compounds that Inhibit VEEV, TC-83 (3).; assay type: functional
A549 = test: A549 cell toxicity, dose response, cytotoxicity control, plate reader, cherry-pick samples (AID 687028); assay type: functional, cell-based; settings: Homo sapiens
[10] = NIH-3T3 fibroblast cytotoxicity, dose response, cytotoxicity control, cell-based, fluorescence, Alamar Blue, secondary assay (AID 2327); assay type: functional;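 further: NIH-3T3 mouse fibroblasts cultured with fluconazole at 8 µg/mL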
[11] = C. albicans growth with fluconazole, confirmation, fluorescence, retest (AID 2467); assay type: functional, cell-based
Nonstructural protein 1 = Nonstructural protein 1 (Influenza A virus, UniProt Q194T2); assay type: functional, Influenza A virus (A/California/07/2009(H1N1))
[12] = molecular target: Matrix metalloproteinase-14 (Homo sapiens, UniProt P50281); test: Dose Response confirmation of uHTS hits for a small molecule inhibitors of MT1-MMP activation in a fluorescence assay set 2.; assay type: functional
[13] = ADAM10 inhibitors, peptide cleavage, dose response, biochemical, QFRET (AID 743254);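 further: ADAM10 enzyme with the DM2 quenched FRET peptide as substrate; EDANS fluorescence gain as the protease cuts the substrate; inhibitor potency against ADAM10 proteolytic activity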
[14] = molecular target: Disintegrin and metalloproteinase domain-containing protein 17 (Homo sapiens, UniProt P78536); test: ADAM17 protease inhibitors, dose response, counter-screen for ADAM10 exosite inhibitor project, biochemical, quenched FRET substrate (AID 743253)
[15] = T. cruzi growth inhibition in host cells, dose response, cell-based, plate reader, dry powder, set 2 (AID 652275); assay type: functional
[16] = molecular target: SWI/SNF-related matrix-associated actin-dependent regulator of chromatin subfamily A member 2 (Homo sapiens, UniProt P51531); test: Luminescence-based cell-based high throughput dose response assay to identify activators of the function of SWI/SNF related, matrix associated, actin dependent regulator of chromatin, subfamily a, member 2 (SMARCA2, BRM).; assay type: functional
[17] = Counterscreen for activators of the function of SWI/SNF related, matrix associated, actin dependent regulator of chromatin, subfamily a, member 2 (SMARCA2, BRM): Luminescence-based cell-based high throughput dose response assay to identify non-selective compounds using the VP16 reporter assay.; assay type: functional
[18] = CFTR ΔF508 corrector activity in bronchial cells, dose response, human bronchial epithelial cells, plate reader, cherry-pick, two tests (AID 743267); assay type: functional, cell-based
[19] = molecular target: T3, Scavenger receptor class B member 1 (Mus musculus, UniProt Q61009); test: inhibitors of SR-BI dependent HDL uptake, dose response, ldlA[mSR-BI] CHO cells, fluorescence plate reader, dry powder, set 9 (AID 623880); assay type: functional, cell-based
T3 sequence (Q61009 whole entry): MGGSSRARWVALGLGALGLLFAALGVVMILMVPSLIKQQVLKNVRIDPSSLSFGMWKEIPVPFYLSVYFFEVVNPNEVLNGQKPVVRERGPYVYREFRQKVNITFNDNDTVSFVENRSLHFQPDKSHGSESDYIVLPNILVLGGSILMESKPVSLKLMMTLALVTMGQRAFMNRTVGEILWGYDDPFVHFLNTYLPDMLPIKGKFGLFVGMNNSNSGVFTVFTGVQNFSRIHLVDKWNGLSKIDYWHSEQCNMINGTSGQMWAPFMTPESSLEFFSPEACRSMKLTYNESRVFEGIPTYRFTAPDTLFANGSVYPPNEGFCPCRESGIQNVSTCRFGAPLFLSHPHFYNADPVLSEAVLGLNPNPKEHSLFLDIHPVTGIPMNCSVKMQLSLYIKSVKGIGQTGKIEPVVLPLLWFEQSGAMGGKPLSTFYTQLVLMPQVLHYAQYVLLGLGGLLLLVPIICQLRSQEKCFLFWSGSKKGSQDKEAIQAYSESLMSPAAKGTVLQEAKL

[20] = molecular target: T3, Scavenger receptor class B member 1; test: inhibitors of SR-BI-mediated HDL uptake, dose response, cell-based, ldlA[mSR-BI] CHO, DiI fluorescence, dry powder, set 10 (AID 624029); assay type: functional
[21] = NIH/3T3 fibroblast cytotoxicity, dose response, cytotoxicity control, cell-based, plate reader, dry powder, set 2 (AID 652280); assay type: functional; settings: NIH3T3
Beta-galactosidase = Beta-galactosidase (Escherichia coli, UniProt Q8VNN2); test: Dose response counterscreen for EBI2 assay utilizing the enzyme, b-galactosidase.; assay type: functional
Beta-galactosidase, sequence (Q8VNN2 whole entry): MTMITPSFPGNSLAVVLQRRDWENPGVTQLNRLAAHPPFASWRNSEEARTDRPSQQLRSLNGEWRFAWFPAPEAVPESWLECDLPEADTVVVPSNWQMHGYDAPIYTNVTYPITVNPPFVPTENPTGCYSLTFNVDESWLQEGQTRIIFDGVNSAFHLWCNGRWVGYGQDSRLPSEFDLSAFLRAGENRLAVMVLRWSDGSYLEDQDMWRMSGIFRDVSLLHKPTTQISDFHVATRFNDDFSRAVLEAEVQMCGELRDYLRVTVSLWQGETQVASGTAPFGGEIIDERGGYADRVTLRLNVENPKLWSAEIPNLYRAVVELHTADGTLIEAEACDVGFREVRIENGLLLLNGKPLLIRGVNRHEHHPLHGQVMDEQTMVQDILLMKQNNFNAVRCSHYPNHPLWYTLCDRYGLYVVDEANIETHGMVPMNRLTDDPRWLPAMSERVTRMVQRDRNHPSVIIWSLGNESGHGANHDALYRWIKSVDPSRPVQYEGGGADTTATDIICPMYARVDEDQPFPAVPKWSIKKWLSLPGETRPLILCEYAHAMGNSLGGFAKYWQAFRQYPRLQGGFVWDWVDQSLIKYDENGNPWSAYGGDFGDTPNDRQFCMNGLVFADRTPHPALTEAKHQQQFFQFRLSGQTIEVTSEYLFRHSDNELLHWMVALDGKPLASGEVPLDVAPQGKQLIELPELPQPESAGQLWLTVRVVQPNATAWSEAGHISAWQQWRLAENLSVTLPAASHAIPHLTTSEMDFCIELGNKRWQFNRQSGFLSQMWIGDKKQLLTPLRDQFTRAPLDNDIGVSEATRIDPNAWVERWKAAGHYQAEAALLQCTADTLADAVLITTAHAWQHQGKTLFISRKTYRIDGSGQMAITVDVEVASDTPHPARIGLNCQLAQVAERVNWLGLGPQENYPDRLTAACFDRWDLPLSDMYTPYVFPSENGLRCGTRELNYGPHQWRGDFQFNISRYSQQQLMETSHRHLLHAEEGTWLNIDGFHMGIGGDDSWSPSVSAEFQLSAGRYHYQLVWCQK

T2 sequence (Q96RJ0 whole entry): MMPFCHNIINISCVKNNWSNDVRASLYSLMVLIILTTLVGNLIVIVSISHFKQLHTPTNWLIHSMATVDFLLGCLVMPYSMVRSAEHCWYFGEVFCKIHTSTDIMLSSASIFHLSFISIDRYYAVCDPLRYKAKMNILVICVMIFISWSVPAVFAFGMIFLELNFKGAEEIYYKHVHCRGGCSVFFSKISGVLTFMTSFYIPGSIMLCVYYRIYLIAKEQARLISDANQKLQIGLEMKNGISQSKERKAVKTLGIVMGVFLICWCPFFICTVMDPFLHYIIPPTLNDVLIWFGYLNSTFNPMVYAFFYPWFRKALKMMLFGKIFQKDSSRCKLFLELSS
Disintegrin and metalloproteinase domain-containing protein 17, sequence (P78536 whole entry, the tested form may be a part): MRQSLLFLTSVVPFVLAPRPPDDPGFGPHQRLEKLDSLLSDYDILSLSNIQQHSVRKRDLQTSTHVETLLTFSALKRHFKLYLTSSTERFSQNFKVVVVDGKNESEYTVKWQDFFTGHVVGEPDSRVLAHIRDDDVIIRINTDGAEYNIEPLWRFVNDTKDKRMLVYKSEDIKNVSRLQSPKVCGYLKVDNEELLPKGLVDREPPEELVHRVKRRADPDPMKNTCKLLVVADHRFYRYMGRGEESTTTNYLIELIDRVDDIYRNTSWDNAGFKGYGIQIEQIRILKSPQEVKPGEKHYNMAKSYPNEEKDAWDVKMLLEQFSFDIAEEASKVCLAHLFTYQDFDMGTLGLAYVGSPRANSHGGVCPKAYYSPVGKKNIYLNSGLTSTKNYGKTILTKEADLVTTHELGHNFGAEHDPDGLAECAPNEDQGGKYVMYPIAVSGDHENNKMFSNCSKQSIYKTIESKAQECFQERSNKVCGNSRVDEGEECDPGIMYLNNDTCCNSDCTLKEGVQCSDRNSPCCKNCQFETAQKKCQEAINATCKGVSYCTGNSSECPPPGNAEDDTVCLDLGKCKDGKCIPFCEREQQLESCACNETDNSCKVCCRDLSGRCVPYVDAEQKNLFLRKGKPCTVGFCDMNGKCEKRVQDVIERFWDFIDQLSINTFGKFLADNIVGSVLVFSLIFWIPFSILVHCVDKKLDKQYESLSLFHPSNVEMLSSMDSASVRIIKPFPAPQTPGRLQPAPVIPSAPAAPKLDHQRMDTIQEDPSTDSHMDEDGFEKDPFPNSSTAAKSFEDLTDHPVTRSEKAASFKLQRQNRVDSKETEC
Nonstructural protein 1, sequence (Q194T2 whole entry): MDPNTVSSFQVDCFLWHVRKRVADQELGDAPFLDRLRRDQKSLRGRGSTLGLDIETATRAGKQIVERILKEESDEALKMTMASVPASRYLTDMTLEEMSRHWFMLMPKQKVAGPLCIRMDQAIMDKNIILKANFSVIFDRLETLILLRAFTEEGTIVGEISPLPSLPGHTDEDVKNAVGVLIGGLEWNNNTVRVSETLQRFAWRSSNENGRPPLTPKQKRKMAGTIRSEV
Protein Wnt-3a, sequence (P27467 whole entry): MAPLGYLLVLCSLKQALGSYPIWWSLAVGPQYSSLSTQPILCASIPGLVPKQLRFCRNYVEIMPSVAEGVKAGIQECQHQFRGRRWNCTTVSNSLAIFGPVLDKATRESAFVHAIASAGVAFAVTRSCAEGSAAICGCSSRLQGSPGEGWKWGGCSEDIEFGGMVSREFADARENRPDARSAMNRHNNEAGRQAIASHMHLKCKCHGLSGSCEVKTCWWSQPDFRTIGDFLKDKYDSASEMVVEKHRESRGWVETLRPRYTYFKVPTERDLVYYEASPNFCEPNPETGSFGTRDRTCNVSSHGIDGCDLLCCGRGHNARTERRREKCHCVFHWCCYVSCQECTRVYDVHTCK
Nuclear receptor subfamily 0 group B member 1, sequence (P51843 whole entry): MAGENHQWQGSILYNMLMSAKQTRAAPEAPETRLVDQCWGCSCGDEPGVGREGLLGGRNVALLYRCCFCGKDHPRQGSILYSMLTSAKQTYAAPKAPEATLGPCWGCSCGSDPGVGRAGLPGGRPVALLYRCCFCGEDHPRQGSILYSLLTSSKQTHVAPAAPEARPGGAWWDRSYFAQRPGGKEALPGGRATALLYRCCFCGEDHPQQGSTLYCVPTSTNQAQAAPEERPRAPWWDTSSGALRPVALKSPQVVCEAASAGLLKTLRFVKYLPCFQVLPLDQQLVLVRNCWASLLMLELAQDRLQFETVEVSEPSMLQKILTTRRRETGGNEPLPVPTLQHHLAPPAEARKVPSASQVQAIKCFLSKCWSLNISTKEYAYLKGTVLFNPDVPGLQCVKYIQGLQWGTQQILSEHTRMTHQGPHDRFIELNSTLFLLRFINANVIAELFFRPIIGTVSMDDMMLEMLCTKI
SWI/SNF-related matrix-associated actin-dependent regulator of chromatin subfamily A member 2, sequence (P51531 whole entry): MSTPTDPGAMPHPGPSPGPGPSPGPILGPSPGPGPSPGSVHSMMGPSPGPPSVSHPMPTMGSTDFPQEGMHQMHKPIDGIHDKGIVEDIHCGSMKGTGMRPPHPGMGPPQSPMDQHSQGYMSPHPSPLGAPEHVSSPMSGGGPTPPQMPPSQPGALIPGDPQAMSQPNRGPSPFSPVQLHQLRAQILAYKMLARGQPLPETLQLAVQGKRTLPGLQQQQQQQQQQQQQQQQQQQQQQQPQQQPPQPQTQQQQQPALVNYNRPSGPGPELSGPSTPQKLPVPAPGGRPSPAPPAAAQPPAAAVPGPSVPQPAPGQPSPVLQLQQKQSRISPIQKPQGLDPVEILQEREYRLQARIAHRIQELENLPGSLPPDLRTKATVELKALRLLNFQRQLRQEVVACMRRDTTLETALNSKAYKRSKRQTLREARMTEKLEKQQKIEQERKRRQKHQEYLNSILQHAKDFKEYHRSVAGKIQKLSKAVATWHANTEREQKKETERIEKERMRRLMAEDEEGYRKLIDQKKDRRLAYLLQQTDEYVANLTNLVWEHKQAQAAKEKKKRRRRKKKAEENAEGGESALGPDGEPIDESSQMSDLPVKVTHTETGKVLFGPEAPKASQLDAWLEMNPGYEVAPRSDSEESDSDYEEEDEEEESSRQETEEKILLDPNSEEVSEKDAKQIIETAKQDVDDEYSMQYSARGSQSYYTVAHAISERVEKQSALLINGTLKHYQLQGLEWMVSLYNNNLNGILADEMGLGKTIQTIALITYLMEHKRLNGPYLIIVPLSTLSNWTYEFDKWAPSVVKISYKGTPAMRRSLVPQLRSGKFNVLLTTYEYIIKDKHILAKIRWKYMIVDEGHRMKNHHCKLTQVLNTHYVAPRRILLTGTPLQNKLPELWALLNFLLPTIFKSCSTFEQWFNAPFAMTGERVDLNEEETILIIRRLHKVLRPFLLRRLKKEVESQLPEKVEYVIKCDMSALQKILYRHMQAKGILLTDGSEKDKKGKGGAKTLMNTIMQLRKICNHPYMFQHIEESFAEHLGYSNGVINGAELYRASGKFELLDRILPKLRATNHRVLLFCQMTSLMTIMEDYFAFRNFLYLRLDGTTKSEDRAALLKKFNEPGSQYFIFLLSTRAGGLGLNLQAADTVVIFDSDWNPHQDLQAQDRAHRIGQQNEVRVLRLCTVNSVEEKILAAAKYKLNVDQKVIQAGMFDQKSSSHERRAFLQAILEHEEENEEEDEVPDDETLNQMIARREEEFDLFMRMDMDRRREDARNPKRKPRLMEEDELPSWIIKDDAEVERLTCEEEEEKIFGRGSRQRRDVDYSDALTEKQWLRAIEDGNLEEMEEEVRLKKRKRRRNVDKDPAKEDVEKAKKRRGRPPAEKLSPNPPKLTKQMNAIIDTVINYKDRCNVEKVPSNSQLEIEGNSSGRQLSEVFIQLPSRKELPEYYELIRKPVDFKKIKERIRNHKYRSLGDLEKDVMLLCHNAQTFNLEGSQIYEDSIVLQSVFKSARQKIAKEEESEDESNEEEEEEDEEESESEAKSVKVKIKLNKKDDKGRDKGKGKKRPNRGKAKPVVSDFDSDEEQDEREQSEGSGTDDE

## CCc1cccc2c(C(=O)CN3C(=O)N(C)C4(CCCCC4)C3=O)c[nH]c12
[1]
  AC50: > 100 µM (inactive)
Cells [2]
  IC50: > 67.5 µM (inactive)
[3]
  IC50: > 67.5 µM (inactive)

## O=C(Nc1cc(N2CCNCC2)ncn1)c1ccccc1
Protein Wnt-3a
  IC50: > 21.8 µM (inactive)

## CCC(=O)N1[C@@H]2Cn3c(cccc3=O)[C@H]1[C@@H](C(=O)NCc1ccccc1)[C@@H]2CO
HEK293
  AC50: 30.2 µM (active)
[4]
  AC50: 30.2 µM (active)

## Cc1ccc2cc(CNCCc3ccccc3C)c(O)nc2c1
Cells [5]
  IC50: > 29.9 µM (inactive)
[6]
  EC50: 2.34 µM (active)
[7]
  IC50: 3.54 µM (active)
Cells [8]
  EC50: > 29.9 µM (inactive)

## O=C(Cc1ccccc1)Nc1nc2c(s1)CCCC2
[9]
  IC50: 9.33 µM (active)

## Cc1cccc(N=[N+]([O-])c2cccc(C)n2)n1
A549
  AC50: 34.5 µM (active)

## Nc1nc(-c2ccccc2)c(N=Nc2ccccc2Cl)s1
[10]
  EC50: > 160 µM (inactive)
[11]
  EC50: 4.78 µM (active)
Nonstructural protein 1
  IC50: 9.93 µM (active)
[12]
  IC50: 28 µM (inactive)
[13]
  IC50: 8.65 µM (active)
[14]
  IC50: > 69.5 µM (inactive)

## CCC(=O)N1CC[C@@H]2[C@H]1c1cc(-c3ccccc3)ccc1N(C)[C@@H]2CO
[15]
  AC50: 8.49 µM (active)

## Cc1ccc2c(c1)cc(CN(Cc1ccco1)C(=O)N1CCOCC1)c1nnnn12
[16]
  EC50: > 91.2 µM (inactive)
[17]
  EC50: > 91.2 µM (inactive)

## CC(C)Oc1[nH]cnc2c3ccccc3nc1-2
[18]
  AC50: 9.38 µM (active)

## C[C@@H]1CN([C@H](C)CO)C(=O)c2cc(NC(=O)Cc3cn(C)c4ccccc34)ccc2O[C@H]1CN(C)S(=O)(=O)c1ccc(Cl)cc1
[19]
  AC50: 0.0155 µM (active)
[20]
  AC50: 0.0313 µM (active)

## Cc1ccccc1-c1ccc([C@H]2[C@H](CO)N3CCCCN(CC4CC4)C[C@@H]23)cc1
[21]
  AC50: 3.99 µM (active)

## Cc1ccc2oc(C(=O)N3CCC(O)(c4ccccc4)CC3)c(C)c2c1
Beta-galactosidase
  IC50: > 80 µM (inactive)
